Laboratory results as given in patent US20210246115A1 (Bioimics AB, priority 2017, published 2021).
Converted amounts (≈) assume the structure as drawn. Where a name gives a salt, the structure may show the parent alone.

Assays:
[1] = test system: Staphylococcus aureus (ATCC25923); test: MIC, broth microdilution (CLSI), Staphylococcus aureus ATCC25923; details: Staphylococcus aureus, ATCC25923, read-out: S. aureus ATCC 25923 MIC
[2] = test system: Escherichia coli (ATCC25922); test: MIC, broth microdilution (CLSI), Escherichia coli; details: Escherichia coli, ATCC25922, read-out: E. coli ATCC 25922 MIC, Table XIII
[3] = test system: E. coli RNase P RNA, M1 RNA; test: Inhibition of bacterial RNase P activity, IC50 determination (cleavage of pATSerUG by M1 RNA); type: biochemical; details: NI: No inhibition

MIC [1] | MIC [2] | IC50 [3] | IC50 ([3]; hydrochloride salt) | SMILES
8 µg/mL | 126 µg/mL | 12 µM | – | Cc1ccccc1-c1ccc2c(c1)c(CC(=O)NC1CCC(N)CC1)cn2CC1CCCCC1.Cl [Compound 235, N-((1S,4S)-4-aminocyclohexyl)-2-(1-(cyclohexylmethyl)-5-(o-tolyl)-1H-indol-3-yl)acetamide hydrochloride salt]
> 512 µg/mL | > 512 µg/mL | 76 µM | – | COc1cc(C)cc(C(CC(=O)N[C@H]2CC[C@H](N)CC2)c2cn(CC3CCCCC3)c3ccccc23)c1.Cl (stereo partly drawn) [Compound 133, N-((1R,4R)-4-aminocyclohexyl)-3-(1-(cyclohexylmethyl)-1H-indol-3-yl)-3-(3-methoxy-5-methylphenyl) propanamide hydrochloride salt]
> 512 µg/mL | > 512 µg/mL | 316 µM | – | Cc1cccc(C(CC(=O)NC2CCNCC2)c2cn(CC3CCOCC3)c3ccccc23)c1.Cl (centres unmarked) [Compound 284, N-(piperidin-4-yl)-3-(1-((tetrahydro-2H-pyran-4-yl)methyl)-1H-indol-3-yl)-3-(m-tolyl)propanamide hydrochloride salt]
10 µg/mL | > 512 µg/mL | – | – | COc1ccccc1-c1ccc2c(c1)c(C(CC(=O)N[C@H]1CC[C@H](N)CC1)c1cccc(C)c1)cn2CC1CCCCC1.Cl (some centres unmarked) [Compound 219]
8 µg/mL | 32 µg/mL | 19 µM | – | Cc1cccc(C(CC(=O)NCCC2CCNCC2)c2cn(CC3CCCCC3)c3ccc(F)cc23)c1.Cl (centres unmarked) [Compound 119, 3-(1-(cyclohexylmethyl)-5-fluoro-1H-indol-3-yl)-N-(2-(piperidin-4-yl)ethyl)-3-(m-tolyl)propanamide hydrochloride salt]
250 µg/mL | > 512 µg/mL | 1090 µM | – | Cc1cccc(C(CC(=O)NC2CCNCC2)c2cn(Cc3ccccc3)c3ncccc23)c1.Cl (centres unmarked) [Compound 70, 3-(1-benzyl-1H-pyrrolo[2,3-b]pyridin-3-yl)-N-(piperidin-4-yl)-3-(m-tolyl)propanamide hydrochloride salt]
– | – | 308 µM | – | O=C(CC(c1cccnc1)c1cn(Cc2ccccc2)c2ccccc12)NCCC1CCNCC1 (centres unmarked) [Compound 93, 3-(1-benzyl-1H-indol-3-yl)-N-(2-(piperidin-4-yl)ethyl)-3-(pyridin-3-yl) propanamide hydrochloride salt]
– | – | 950 µM | – | O=C(CCc1cn(Cc2ccccc2)c2ccccc12)NC1CCNCC1 [Compound 102, 3-(1-benzyl-1H-indol-3-yl)-N-(piperidin-4-yl)propanamide hydrochloride salt]
> 512 µg/mL | > 512 µg/mL | – | – | Cc1cccc(C(CC(=O)Nc2ccc(N3CCNCC3)cc2)c2cn(CC3CCCCC3)c3ccccc23)c1.Cl (centres unmarked) [Compound 155, 3-(1-(cyclohexylmethyl)-1H-indol-3-yl)-N-(4-(piperazin-1-yl)phenyl)-3-(m-tolyl)propanamide hydrochloride salt]
> 512 µg/mL | > 512 µg/mL | – | – | Cc1cccc(C(CC(=O)N[C@H]2CC[C@H](O)CC2)c2cn(CC3CCCCC3)c3ccccc23)c1 (stereo partly drawn) [Compound 210, 3-(1-(cyclohexylmethyl)-1H-indol-3-yl)-N-((1R,4R)-4-hydroxycyclohexyl)-3-(m-tolyl)propanamide]
64 µg/mL | 64 µg/mL | – | – | Cl.N[C@H]1CC[C@H](NC(=O)CC(c2ccccc2)c2cn(CC3CCCCC3)c3ccccc23)CC1 (stereo partly drawn) [Compound 130, N-((1R,4R)-4-aminocyclohexyl)-3-(1-(cyclohexylmethyl)-1H-indol-3-yl)-3-phenylpropanamide hydrochloride salt]
15 µg/mL | > 512 µg/mL | – | – | Cl.Nc1ccc(NC(=O)CCc2cn(CC3CCCCC3)c3ccc(Br)cc23)cn1 [Compound 298, N-(6-aminopyridin-3-yl)-3-(5-bromo-1-(cyclohexylmethyl)-1H-indol-3-yl)propanamide hydrochloride salt]
– | – | 842 µM | – | O=C(CCc1cn(Cc2ccccc2)c2ccccc12)NCCC1CCNCC1 [Compound 88, 3-(1-benzyl-1H-indol-3-yl)-N-(2-(piperidin-4-yl)ethyl)propanamide hydrochloride salt]
– | – | 1080 µM | – | CCn1cc(C(CC(=O)NC2CCNCC2)c2cccc(C)c2)c2ccccc21 (centres unmarked) [Compound 91, 3-(1-ethyl-1H-indol-3-yl)-N-(piperidin-4-yl)-3-(m-tolyl)propanamide hydrochloride salt]
– | – | – | 197 µM | O=C(CC(c1cscn1)c1cn(Cc2ccccc2)c2ccccc12)NCCC1CCNCC1 (centres unmarked) [Compound 76, 3-(1-benzyl-1H-indol-3-yl)-N-(2-(piperidin-4-yl)ethyl)-3-(thiazol-4-yl) propanamide hydrochloride salt]
– | – | – | 1300 µM | O=C(CC(c1cscn1)c1cn(Cc2ccccc2)c2ccccc12)NCCC1CCNCC1 (centres unmarked) [Compound 95, 3-(1-benzyl-1H-indol-3-yl)-N-(2-(piperidin-4-yl)ethyl)-3-(thiazol-4-yl) propanamide hydrochloride salt]
– | – | 911 µM | – | O=C(CC(c1cscn1)c1cn(Cc2ccccc2)c2ccccc12)NC1CCNCC1 (centres unmarked) [Compound 96, 3-(1-benzyl-1H-indol-3-yl)-N-(piperidin-4-yl)-3-(thiazol-4-yl) propanamide hydrochloride salt]
– | – | 100 µM | – | Cc1cccc(C(CC(=O)N[C@H]2CC[C@@H](N)CC2)c2cn(Cc3ccccc3)c3ccccc23)c1 (stereo partly drawn) [Compound 54, N-((1S,4S)-4-aminocyclohexyl)-3-(1-benzyl-1H-indol-3-yl)-3-(m-tolyl)propanamide hydrochloride salt]
– | – | 950 µM | – | Cc1cccc(C(CC(=O)NC2CCNCC2)c2cn(Cc3ccccc3)c3cnccc23)c1 (centres unmarked) [Compound 90, 3-(1-benzyl-1H-pyrrolo[2,3-c]pyridin-3-yl)-N-(piperidin-4-yl)-3-(m-tolyl)propanamide hydrochloride salt]
– | – | 140 µM | – | O=C(CC(c1cn(Cc2ccccc2)c2ccccc12)C1CCNCC1)NCCC1CCNCC1 (centres unmarked) [Compound 77, 3-(1-benzyl-1H-indol-3-yl)-3-(piperidin-4-yl)-N-(2-(piperidin-4-yl)ethyl)propanamide hydrochloride salt]
– | – | 343 µM | – | N[C@H]1CC[C@@H](NC(=O)CC(c2cccnc2)c2cn(Cc3ccccc3)c3ccccc23)CC1 (some centres unmarked) [Compound 75, N-((1s,4s)-4-aminocyclohexyl)-3-(1-benzyl-1H-indol-3-yl)-3-(pyridin-3-yl)propanamide hydrochloride salt]
– | – | 129 µM | – | Cc1cccc(C(CC(=O)NCC2CCNCC2)c2cn(Cc3ccccc3)c3ccccc23)c1 (centres unmarked) [Compound 79, 3-(1-benzyl-1H-indol-3-yl)-N-(piperidin-4-ylmethyl)-3-(m-tolyl)propanamide hydrochloride salt]
– | – | 7 µM | – | COc1ccccc1-c1ccc2c(c1)c(C(CC(=O)N[C@H]1CC[C@H](N)CC1)c1cccc(C)c1)cn2CC1CCCCC1.Cl (some centres unmarked) [Compound 219, hydrochloride salt]
– | – | 269 µM | – | Cc1cccc(C(CC(=O)NC2CCNCC2)c2cn(CC3CCCCC3)c3cccnc23)c1 (centres unmarked) [Compound 98, 3-(1-(cyclohexylmethyl)-1H-pyrrolo[3,2-b]pyridin-3-yl)-N-(piperidin-4-yl)-3-(m-tolyl)propanamide hydrochloride salt]
> 512 µg/mL | > 512 µg/mL | – | – | Cc1cccc(C(CC(=O)Nc2ccc(N3CCCCC3)cc2)c2cn(CC3CCCCC3)c3ccccc23)c1.Cl (centres unmarked) [Compound 158, 3-(1-(cyclohexylmethyl)-1H-indol-3-yl)-N-(4-(piperidin-1-yl)phenyl)-3-(m-tolyl)propanamide hydrochloride salt]
32 µg/mL | > 512 µg/mL | – | – | Cc1cccc(C(CC(=O)NCCN2CCCC2)c2cn(Cc3ccccc3)c3ccccc23)c1.Cl (centres unmarked) [Compound 3, 3-(1-benzyl-1H-indol-3-yl)-N-(2-(pyrrolidin-1-yl)ethyl)-3-(m-tolyl)propanamide hydrochloride salt]
– | – | 912 µM | – | Cc1cccc(C(CC(=O)NCCC2CCNCC2)c2cn(Cc3ccccc3)c3ncncc23)c1 (centres unmarked) [Compound 94, 3-(7-benzyl-7H-pyrrolo[2,3-d]pyrimidin-5-yl)-N-(2-(piperidin-4-yl)ethyl)-3-(m-tolyl)propanamide hydrochloride salt]
– | – | 22 µM | – | Cl.Cl.N[C@H]1CC[C@H](NCCC(c2cn(C3CCCCC3)c3ccccc23)C2CCCCC2)CC1 (stereo partly drawn) [Compound 378, ((1R,4R)-N1-(3-cyclohexyl-3-(1-cyclohexyl-1H-indol-3-yl)propyl)cyclohexane-1,4-diamine salt]
9 µg/mL | 289 µg/mL | – | – | Cl.NC1CCC(NC(=O)Cc2cn(CC3CCCCC3)c3ccc(-c4cccc(OC(F)(F)F)c4)cc23)CC1 [Compound 240, N-((1S,4S)-4-aminocyclohexyl)-2-(1-(cyclohexylmethyl)-5-(3-(trifluoromethoxy)phenyl)-1H-indol-3-yl)acetamide hydrochloride salt]

SMILES | MIC [1] | MIC [2] | IC50 [3] | IC50 ([3]; hydrochloride salt)
Cc1cccc(C(CC(=O)NC2CCCCC2)c2cn(CC3CCCCC3)c3ccccc23)c1 (centres unmarked) [Compound 208, N-cyclohexyl-3-(1-(cyclohexylmethyl)-1H-indol-3-yl)-3-(m-tolyl)propanamide] | > 512 µg/mL | > 512 µg/mL | – | –
N[C@H]1CC[C@H](CN2CCC(c3cn(CC4CCCCC4)c4ccccc34)CC2)CC1 [Compound 217, (1R,4R)-4-((4-(1-(cyclohexylmethyl)-1H-indol-3-yl)piperidin-1-yl)methyl)cyclohexan-1-amine hydrochloride salt] | 8 µg/mL | 31 µg/mL | 133 µM | –
Cc1cccc(C(CC(=O)NC2CCNC(=O)C2)c2cn(CC3CCCCC3)c3ccc(Br)cc23)c1 (centres unmarked) [Compound 296, 3-(5-bromo-1-(cyclohexylmethyl)-1H-indol-3-yl)-N-(2-oxopiperidin-4-yl)-3-(m-tolyl)propanamide hydrochloride salt] | > 512 µg/mL | > 512 µg/mL | – | –
CCOP(=O)(NCCC1CCN(C(=O)CC(c2cccc(C)c2)c2cn(CC3CCCCC3)c3ccccc23)CC1)OCC (centres unmarked) [Compound 227, diethyl (2-(1-(3-(1-(cyclohexylmethyl)-1H-indol-3-yl)-3-(m-tolyl)propanoyl)piperidin-4-yl)ethyl)phosphoramidate] | 318 µg/mL (≈ 511 µM) | > 512 µg/mL | – | –
